Assays:
T cells = experiment: In vitro proliferation of T cells from draining lymph nodes after concanavalin A stimulation, tritiated thymidine incorporation; assay type: cell-based; settings: T cells isolated day 22 from treated rats, thymidine uptake
Protocol: (§1) Hindpaw swelling (days 3, 7, 11, 14, 17, 21) and nociception (days 15 and 21) were measured. On day 22 rats were sacrificed, draining lymph nodes were removed and T cells isolated. In vitro proliferation of T cells following stimulation with concanavalin A (0.5-5 mcg/mL) was measured using a tritiated thymidine incorporation assay.
IL-2 receptor expression on T cells was measured by FACS analysis. […] T cells were isolated and characterized by FACS analysis.

[1] = system: Freund's adjuvant (FA) arthritis; experiment: Freund's adjuvant (FA) arthritis in rats, nociception; assay type: in vivo; settings: oral administration, dose giving the same extent of inhibition
Protocol: as §1, with “Freund's adjuvant (FA) arthritis was induced in rats by a single intraplantar injection into the right hindpaw of 100 microl of Mycobacterium butirricum (6 mg/mL). […] Hindpaw” for “Hindpaw”

SMILES	order of activity, inhibition of T-cell proliferation (T cells)	dose at which anti-nociceptive [1]
CC(=O)O[C@@H]1CC[C@@]2(C)[C@@H](CC[C@]3(C)[C@@H]2C(=O)C=C2[C@@H]4[C@@H](C)[C@H](C)CC[C@]4(C)CC[C@]23C)[C@@]1(C)C(=O)O [AKBBA, 3-acetyl-11-keto-β-boswellic acid, reference compound]	SA-041>SA-040>N>1>AKBBA	–
CC(=O)OC1CCC2(C)C(CCC3(C)C2C(=O)C=C2C4C(C)C(C)CCC4(C)CCC23C)C1(C)C(=O)OCCl (stereo not drawn) [Example 1, 3-Acetyl-11-keto-β-boswellic acid chloromethyl ester]	SA-041>SA-040>N>1>AKBBA	–
COc1ccc2cc([C@H](C)C(=O)O)ccc2c1 [N, Naproxen, reference compound]	SA-041>SA-040>N>1>AKBBA	–
CC(=O)O[C@@H]1CC[C@@]2(C)[C@@H](CC[C@]3(C)[C@@H]2C(=O)C=C2[C@@H]4[C@@H](C)[C@H](C)CC[C@]4(C)CC[C@@]23C)[C@@]1(C)C(=O)OCOC(=O)C(C)c1ccc(CC(C)C)cc1 (some centres unmarked) [SA-040, AKBBA-Ibuprofen conjugate]	SA-041>SA-040>N>1>AKBBA	5.9 mg/kg
